Data from ChEMBL document CHEMBL4354799, “Exploiting Structural Dynamics To Design Open-Flap Inhibitors of Malarial Aspartic Proteases” (J Med Chem, 2019).

Columns and labels:
Plasmepsin II [1] = biological target: T1, Plasmepsin II (Plasmodium falciparum, UniProt P46925); experiment: Inhibition of Plasmodium falciparum plasmepsin 2 using Dabcyl-ERNIef:LSFP-EDANS as substrate incubated for 40 mins by FRET assay
Cathepsin D = Cathepsin D (Homo sapiens, UniProt P07339); experiment: Inhibition of human liver cathepsin D using DABCYL-Glu-Arg-Nle-Phe-Leu-Ser-Phe-Pro-EDANS as substrate by FRET assay
Cathepsin D, sequence (P07339 65-162 limits assumed): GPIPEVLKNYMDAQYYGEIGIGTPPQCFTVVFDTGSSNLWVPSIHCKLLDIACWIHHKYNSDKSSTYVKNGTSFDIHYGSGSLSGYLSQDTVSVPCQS
Cathepsin D, sequence (P07339 169-412 limits assumed): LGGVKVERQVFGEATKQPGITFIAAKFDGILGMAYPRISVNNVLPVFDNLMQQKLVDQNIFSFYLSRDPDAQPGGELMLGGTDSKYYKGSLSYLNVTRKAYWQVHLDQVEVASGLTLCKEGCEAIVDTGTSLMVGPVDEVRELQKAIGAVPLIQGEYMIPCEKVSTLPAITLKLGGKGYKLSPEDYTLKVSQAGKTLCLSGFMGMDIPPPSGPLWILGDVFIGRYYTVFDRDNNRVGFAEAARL

Plasmepsin II [2] = biological target: T1, Plasmepsin II; experiment: Inhibition of Plasmodium falciparum plasmepsin 2 using DABCYL-Glu-Arg-Nle-Phe-Leu-Ser-Phe-Pro-EDANS as substrate by FRET assay
Plasmepsin 4 [3] = biological target: T2, Plasmepsin 4 (Plasmodium falciparum, UniProt Q17SB2); experiment: Inhibition of Plasmodium falciparum plasmepsin 4 using fluorescently labeled peptide substrate by fluorescence method
T2 sequence (Q17SB2 whole entry): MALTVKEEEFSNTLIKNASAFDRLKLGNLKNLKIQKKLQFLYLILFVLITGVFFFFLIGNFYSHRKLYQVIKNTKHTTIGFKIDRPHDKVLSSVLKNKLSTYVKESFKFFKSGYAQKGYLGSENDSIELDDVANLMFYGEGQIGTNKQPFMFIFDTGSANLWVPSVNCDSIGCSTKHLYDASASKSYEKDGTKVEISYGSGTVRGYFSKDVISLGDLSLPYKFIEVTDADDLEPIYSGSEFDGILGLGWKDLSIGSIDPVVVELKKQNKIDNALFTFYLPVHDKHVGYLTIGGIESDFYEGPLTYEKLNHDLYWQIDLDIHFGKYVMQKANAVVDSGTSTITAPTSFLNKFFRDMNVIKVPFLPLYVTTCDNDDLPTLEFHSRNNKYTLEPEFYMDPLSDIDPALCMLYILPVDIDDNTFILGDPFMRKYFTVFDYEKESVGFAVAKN

Plasmepsin II [4] = biological target: T1, Plasmepsin II; experiment: Inhibition of Plasmodium falciparum plasmepsin 2 using fluorescently labeled peptide substrate by fluorescence method
Plasmepsin II [5] = biological target: T1, Plasmepsin II; experiment: Inhibition of Plasmodium falciparum plasmepsin 2 incubated for 10 mins followed by DABCYL-Glu-Arg-Nle-Phe-Leu-Ser-Phe-Pro-EDANS addition and measured after 30 mins by fluorescence method
Plasmepsin II [6] = biological target: T1, Plasmepsin II; experiment: Inhibition of Plasmodium falciparum plasmepsin 2 by FRET assay
Plasmepsin 4 [7] = biological target: T2, Plasmepsin 4; experiment: Inhibition of Plasmodium falciparum plasmepsin 4 by FRET assay
Plasmepsin II [8] = biological target: T1, Plasmepsin II; experiment: Inhibition of Plasmodium falciparum plasmepsin 2 preincubated for 30 mins followed by DABCYL-Glu-Arg-Nle-Phe-Leu-Ser-Phe-Pro-EDANS addition measured every minute for 8 to 15 mins by FRET assay

T1 sequence (P46925 whole entry): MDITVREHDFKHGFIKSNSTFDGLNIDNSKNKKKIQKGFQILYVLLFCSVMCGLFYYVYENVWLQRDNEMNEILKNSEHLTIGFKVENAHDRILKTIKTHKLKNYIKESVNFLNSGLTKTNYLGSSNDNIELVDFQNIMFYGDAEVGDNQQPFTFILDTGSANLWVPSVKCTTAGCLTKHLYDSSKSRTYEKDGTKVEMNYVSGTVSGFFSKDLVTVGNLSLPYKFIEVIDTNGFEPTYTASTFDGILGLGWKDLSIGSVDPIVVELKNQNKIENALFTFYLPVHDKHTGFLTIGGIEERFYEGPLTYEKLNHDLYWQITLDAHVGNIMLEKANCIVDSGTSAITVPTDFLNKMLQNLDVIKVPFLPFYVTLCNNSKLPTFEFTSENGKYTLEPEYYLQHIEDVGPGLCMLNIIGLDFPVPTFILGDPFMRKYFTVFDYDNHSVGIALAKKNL

O=C(C1=C(c2ccc(CCCOc3cc(F)ccc3Br)cc2)CCNC1)N(Cc1ccccc1Cl)C1CC1
IC50 (Plasmepsin II [1]): < 100 nM

NNC(=O)c1ccccc1[N+](=O)[O-]
IC50 (Cathepsin D): 1000 to 2500 nM
IC50 (Plasmepsin II [2]): 1000 to 2500 nM

COc1ccccc1C(=O)NN
IC50 (Cathepsin D): 1000 to 2500 nM
IC50 (Plasmepsin II [2]): 1000 to 2500 nM

O=S(=O)(c1ccc(CCCCC2CCCC2)cc1)C1C2CCC(N2)C1NCc1ccc2ccccc2c1 (centres undefined)
IC50 (Plasmepsin 4 [3]): 210 nM
IC50 (Plasmepsin II [4]): 190 nM

O=C(Nc1cc(C(F)(F)F)ccc1Cl)Nc1cc(Cl)ccc1Oc1cc(Cl)c(Cl)cc1S(=O)(=O)O
Ki (Plasmepsin II [5]): 50 to 680 nM

Clc1ccc2sc(SCCCc3cc4c(cc3OCCc3cccc5ccccc35)C3CCC4N3)nc2c1 (centres undefined)
IC50 (Plasmepsin II [6]): 2000 nM
IC50 (Plasmepsin 4 [7]): 10000 nM

COc1cccc(OCCc2ccc(C3=C(C(=O)N(C)CCc4ccccc4)C4CN(C(C)=O)CC(C3)N4)cc2)c1 (centres undefined)
IC50 (Plasmepsin II [1]): 10 to 100 nM

CCCCCCCCCCCC(=O)N(Cc1ccc(-c2ccccc2)cc1)C1CCN(Cc2ccccc2)CC1
IC50 (Plasmepsin II [1]): 1800 nM

CCCCCCc1ccc(S(=O)(=O)[C@@H]2[C@H](NCc3cccc(Br)c3)[C@@H]3CC[C@H]2N3)cc1
IC50 (Plasmepsin 4 [3]): 10 nM
IC50 (Plasmepsin II [4]): ≤ 45 nM

CC(C)(C)c1ccc(C(=O)N(Cc2ccc(-c3ccccc3)cc2)C2CCN(Cc3ccccc3)CC2)cc1
IC50 (Plasmepsin II [1]): > 20000 nM

CCN(CC)CCc1nnn(-c2ccc(C)cc2)c1-c1ccc(-c2ccc(OC)cc2)cc1
IC50 (Plasmepsin II [8]): > 200000 nM

CCc1ccc(C(=O)N(Cc2ccc(-c3ccccc3)cc2)C2CCN(Cc3ccccc3)CC2)cc1
IC50 (Plasmepsin II [1]): 15600 nM

c1cc(NNc2ccncc2)ccn1
IC50 (Cathepsin D): 1000 to 2500 nM
IC50 (Plasmepsin II [2]): 1000 to 2500 nM

CC(C)CCCCc1ccc(S(=O)(=O)C2C3CCC(N3)C2NCc2ccc3ccccc3c2)cc1 (centres undefined)
IC50 (Plasmepsin 4 [3]): 90 nM
IC50 (Plasmepsin II [4]): 30 nM

O=S(=O)(c1ccc(CCCCC2CCCCC2)cc1)C1C2CCC(N2)C1NCc1ccc2ccccc2c1 (centres undefined)
IC50 (Plasmepsin 4 [3]): 760 nM
IC50 (Plasmepsin II [4]): 380 nM

O=C(C1=C(c2ccc(CCCOc3ccccc3Cl)cc2)CCNC1)N(Cc1ccccc1Cl)C1CC1
IC50 (Plasmepsin II [1]): < 100 nM

O=S(=O)(c1ccc(CCCCC2CCC2)cc1)C1C2CCC(N2)C1NCc1ccc2ccccc2c1 (centres undefined)
IC50 (Plasmepsin 4 [3]): 180 nM
IC50 (Plasmepsin II [4]): 170 nM

CCCC(=O)NN
IC50 (Cathepsin D): 1000 to 2500 nM
IC50 (Plasmepsin II [2]): 1000 to 2500 nM

CCCCCc1ccc(Cn2nnc(CCN(CC)CC)c2-c2ccc(-c3ccc(OC)cc3)cc2)cc1
IC50 (Plasmepsin II [8]): 5200 nM

CC(=O)N1CC2CC(c3ccc(CCOc4ccccc4C(C)(C)C)cc3)=C(C(=O)N(C)CCc3ccccc3)C(C1)N2 (centres undefined)
IC50 (Plasmepsin II [1]): 10 to 100 nM

CCCCCc1ccc(N(CC2CCC(O)C(F)(F)C2)C(=O)Cc2ccc3ccccc3c2)cc1 (centres undefined)
IC50 (Plasmepsin II [6]): 7000 nM

O=C(C1=C(c2ccc(CCCOc3c(F)ccc(F)c3F)cc2)CCNC1)N(Cc1ccccc1Cl)C1CC1
IC50 (Plasmepsin II [1]): 100 to 10000 nM

O=C(Nc1cc(C(F)(F)F)cc(C(F)(F)F)c1)Nc1c(Oc2ccc(Cl)cc2)ccc(Cl)c1S(=O)(=O)O
Ki (Plasmepsin II [5]): 50 to 680 nM

O=C(Nc1ccc(Oc2ccc(Cl)cc2)c(Cl)c1)Nc1cc(Cl)c(Cl)cc1S(=O)(=O)O
Ki (Plasmepsin II [5]): 50 to 680 nM

c1ccc(-c2nnc(SCCOc3cc4c(cc3OCCc3cccc5ccccc35)C3CCC4N3)o2)cc1 (centres undefined)
IC50 (Plasmepsin II [6]): 79000 nM

CC(=O)N1CC2CC(c3ccc(CCOc4cc(Cl)cc(Cl)c4)cc3)=C(C(=O)N(C)CCc3ccccc3)C(C1)N2 (centres undefined)
IC50 (Plasmepsin II [1]): 10 to 100 nM

CCCCCc1ccc(S(=O)(=O)C2C3CCC(N3)C2NCc2ccc3ccccc3c2)cc1 (centres undefined)
IC50 (Plasmepsin 4 [3]): 240 nM
IC50 (Plasmepsin II [4]): 680 nM

O=C(Nc1ccc(Oc2ccc(Cl)cc2)c(Cl)c1)Nc1cc(C(F)(F)F)c(Cl)cc1S(=O)(=O)O
Ki (Plasmepsin II [5]): 50 to 680 nM

CC(=O)N1CC2CC(c3ccc(CCOc4cccc(Br)c4)cc3)=C(C(=O)N(C)CCc3ccccc3)C(C1)N2 (centres undefined)
IC50 (Plasmepsin II [1]): 10 to 100 nM

O=C(Nc1ccc(Cl)c(C(F)(F)F)c1)Nc1cc(Cl)c(Oc2ccc(Cl)cc2)cc1S(=O)(=O)O
Ki (Plasmepsin II [5]): 50 to 680 nM

CC(=O)N1CC2CC(c3ccc(CCOc4ccc(C)cc4C(C)(C)C)cc3)=C(C(=O)N(C)CCc3ccccc3)C(C1)N2 (centres undefined)
IC50 (Plasmepsin II [1]): 100 to 10000 nM

CC(=O)N1CC2CC(c3ccc(CCOc4cc(Cl)ccc4Cl)cc3)=C(C(=O)N(C)CCc3ccccc3)C(C1)N2 (centres undefined)
IC50 (Plasmepsin II [1]): 10 to 100 nM

O=C(Nc1ccc(Cl)c(Cl)c1)Nc1cc(Cl)c(Oc2ccc(Cl)cc2)cc1S(=O)(=O)O
Ki (Plasmepsin II [5]): 50 to 680 nM

CC(=O)N1CC2CC(c3ccc(CCOc4cccc(Cl)c4)cc3)=C(C(=O)N(C)CCc3ccccc3)C(C1)N2 (centres undefined)
IC50 (Plasmepsin II [1]): 100 to 10000 nM

Cc1ccc(C)c(OCCCc2ccc(C3=C(C(=O)N(Cc4ccccc4Cl)C4CC4)CNCC3)cc2)c1C
IC50 (Plasmepsin II [1]): 100 to 10000 nM

c1ccc2c(CCOc3cc4c(cc3OCCSc3nc5ccccc5s3)C3CCC4N3)cccc2c1 (centres undefined)
IC50 (Plasmepsin II [6]): 3000 nM
IC50 (Plasmepsin 4 [7]): 15000 nM

NNC(=O)C(c1ccccc1)c1ccccc1
IC50 (Cathepsin D): 1000 to 2500 nM
IC50 (Plasmepsin II [2]): 1000 to 2500 nM

COc1cc2c(cc1OCCc1cccc3ccccc13)C1CCC2N1 (centres undefined)
IC50 (Plasmepsin II [6]): 24000 nM
IC50 (Plasmepsin 4 [7]): 81000 nM

CC(=O)N1CC2CC(c3ccc(CCOc4ccccc4C(C)C)cc3)=C(C(=O)N(C)CCc3ccccc3)C(C1)N2 (centres undefined)
IC50 (Plasmepsin II [1]): 10 to 100 nM

CCCCCCc1ccc(S(=O)(=O)C2C3CCC(N3)C2NCc2ccc3ccccc3c2)cc1 (centres undefined)
IC50 (Plasmepsin 4 [3]): 50 nM
IC50 (Plasmepsin II [4]): 130 nM

O=C(Nc1cccc(C(F)(F)F)c1)Nc1ccc(Oc2ccc(Cl)cc2Cl)cc1S(=O)(=O)O
Ki (Plasmepsin II [5]): 50 to 680 nM

c1ccc2c(CCOc3cc4c(cc3CCCSc3nc5ccccc5s3)C3CCC4N3)cccc2c1 (centres undefined)
IC50 (Plasmepsin II [6]): 4000 nM
IC50 (Plasmepsin 4 [7]): 33000 nM

O=C(Nc1ccc(Cl)c(Cl)c1)Nc1cc(Cl)ccc1Oc1cc(Cl)c(Cl)cc1S(=O)(=O)O
Ki (Plasmepsin II [5]): 50 to 680 nM

CCCCCCCCCc1ccc(S(=O)(=O)C2C3CCC(N3)C2NCc2ccc3ccccc3c2)cc1 (centres undefined)
IC50 (Plasmepsin 4 [3]): 1360 nM
IC50 (Plasmepsin II [4]): 150 nM

CCCCCCCCCCc1ccc(S(=O)(=O)C2C3CCC(N3)C2NCc2ccc3ccccc3c2)cc1 (centres undefined)
IC50 (Plasmepsin 4 [3]): 3190 nM
IC50 (Plasmepsin II [4]): 350 nM

CCCCCCCCCCCc1ccc(S(=O)(=O)C2C3CCC(N3)C2NCc2ccc3ccccc3c2)cc1 (centres undefined)
IC50 (Plasmepsin 4 [3]): 5350 nM
IC50 (Plasmepsin II [4]): 1950 nM

CC(=O)N1CC2CC(c3ccc(CCOc4ccc(C(C)(C)C)cc4C)cc3)=C(C(=O)N(C)CCc3ccccc3)C(C1)N2 (centres undefined)
IC50 (Plasmepsin II [1]): 10 to 100 nM

CC(C)CCCN(CCCC(C)C)CC(O)c1cc2c(c3ccccc13)CCCC2 (centres undefined)
IC50 (Plasmepsin II [4]): 19000 nM

CCCCCc1ccc(-n2nnc(CCN(CC)CC)c2-c2ccc(-c3ccc(OC)cc3)cc2)c(Cl)c1
IC50 (Plasmepsin II [8]): 600 nM

CCCCOc1ccc(C(=O)N(Cc2ccc(-c3ccccc3)cc2)C2CCN(Cc3ccccc3)CC2)cc1
IC50 (Plasmepsin II [1]): 1700 nM

CC(=O)N1CC2CC(c3ccc(CCOc4cccc(OC(F)(F)F)c4)cc3)=C(C(=O)N(C)CCc3ccccc3)C(C1)N2 (centres undefined)
IC50 (Plasmepsin II [1]): 10 to 100 nM

CC(=O)N1CC2CC(c3ccc(CCOc4cc(F)ccc4Br)cc3)=C(C(=O)N(C)CCc3ccccc3)C(C1)N2 (centres undefined)
IC50 (Plasmepsin II [1]): < 10 nM

CCCCCc1ccc(C(=O)N(Cc2ccc(-c3ccccc3)cc2)C2CCN(Cc3ccccc3)CC2)cc1
IC50 (Plasmepsin II [1]): 70 to 90 nM

CCCCCCCCc1ccc(S(=O)(=O)C2C3CCC(N3)C2NCc2ccc3ccccc3c2)cc1 (centres undefined)
IC50 (Plasmepsin 4 [3]): 430 nM
IC50 (Plasmepsin II [4]): 70 nM

O=C(Nc1ccc(Cl)c(C(F)(F)F)c1)Nc1cc(Cl)ccc1Oc1ccc(Cl)cc1S(=O)(=O)O
Ki (Plasmepsin II [5]): 50 to 680 nM

CCCCCN(CCCCC)CC(O)c1cc2c(c3ccccc13)CCCC2 (centres undefined)
IC50 (Plasmepsin II [4]): 5000 nM

CC(=O)N1CC2CC(c3ccc(CCOc4ccccc4Cl)cc3)=C(C(=O)N(C)CCc3ccccc3)C(C1)N2 (centres undefined)
IC50 (Plasmepsin II [1]): 100 to 10000 nM

CCCCCCCc1ccc(S(=O)(=O)C2C3CCC(N3)C2NCc2ccc3ccccc3c2)cc1 (centres undefined)
IC50 (Plasmepsin 4 [3]): 210 nM
IC50 (Plasmepsin II [4]): 50 nM

CCCCCc1ccc(-n2nnc(CCN(CC)CC)c2-c2ccc(-c3ccc(OC)cc3)cc2)cc1
IC50 (Plasmepsin II [8]): 600 nM

CCCCc1ccc(S(=O)(=O)C2C3CCC(N3)C2NCc2ccc3ccccc3c2)cc1 (centres undefined)
IC50 (Plasmepsin 4 [3]): 1480 nM
IC50 (Plasmepsin II [4]): 4190 nM

c1ccc(NNc2ccccc2)cc1 [HYDRAZOBENZENE]
IC50 (Cathepsin D): 1000 to 2500 nM
IC50 (Plasmepsin II [2]): 1000 to 2500 nM
